Earlier results on twelve compounds are cited in publication PMC9516332 (Frontiers in Oncology, 2022).

Where two headings read alike, the source gives them in different places.

Holding throughout (details): cited from earlier work
In data set [1] the target is panel of 255 wild-type kinases (Homo sapiens, UniProt P05771).
The target in data set [2] is panel of 255 wild-type kinases (Homo sapiens, UniProt P10721).
In data set [3] the target is T1, panel of 255 wild-type kinases (Homo sapiens, UniProt O94806).
T1 sequence (O94806 1-890): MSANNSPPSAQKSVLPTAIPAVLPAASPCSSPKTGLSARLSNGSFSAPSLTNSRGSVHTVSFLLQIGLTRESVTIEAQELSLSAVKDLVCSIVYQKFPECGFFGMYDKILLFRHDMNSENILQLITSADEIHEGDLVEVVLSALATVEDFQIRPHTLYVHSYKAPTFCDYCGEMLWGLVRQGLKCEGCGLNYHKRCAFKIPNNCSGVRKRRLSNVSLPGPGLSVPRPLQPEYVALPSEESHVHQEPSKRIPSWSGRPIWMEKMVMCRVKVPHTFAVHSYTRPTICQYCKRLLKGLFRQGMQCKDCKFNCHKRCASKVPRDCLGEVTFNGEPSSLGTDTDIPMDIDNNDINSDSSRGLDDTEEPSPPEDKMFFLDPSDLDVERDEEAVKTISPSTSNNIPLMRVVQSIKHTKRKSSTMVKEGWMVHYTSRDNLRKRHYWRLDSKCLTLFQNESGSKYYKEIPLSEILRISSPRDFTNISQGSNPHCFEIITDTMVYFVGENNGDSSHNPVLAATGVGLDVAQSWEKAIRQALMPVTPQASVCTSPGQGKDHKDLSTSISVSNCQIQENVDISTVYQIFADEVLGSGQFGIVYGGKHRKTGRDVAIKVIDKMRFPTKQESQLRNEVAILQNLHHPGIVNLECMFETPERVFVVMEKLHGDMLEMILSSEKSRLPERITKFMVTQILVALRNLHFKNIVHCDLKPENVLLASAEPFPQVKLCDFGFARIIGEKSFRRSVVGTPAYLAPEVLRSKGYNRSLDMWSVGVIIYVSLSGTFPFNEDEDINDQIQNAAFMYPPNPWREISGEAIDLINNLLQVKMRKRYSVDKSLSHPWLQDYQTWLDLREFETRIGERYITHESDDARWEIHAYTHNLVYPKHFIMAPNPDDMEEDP

The target of data set [4] is T2, panel of 255 wild-type kinases (Homo sapiens, UniProt Q12851).
T2 sequence (Q12851 1-820): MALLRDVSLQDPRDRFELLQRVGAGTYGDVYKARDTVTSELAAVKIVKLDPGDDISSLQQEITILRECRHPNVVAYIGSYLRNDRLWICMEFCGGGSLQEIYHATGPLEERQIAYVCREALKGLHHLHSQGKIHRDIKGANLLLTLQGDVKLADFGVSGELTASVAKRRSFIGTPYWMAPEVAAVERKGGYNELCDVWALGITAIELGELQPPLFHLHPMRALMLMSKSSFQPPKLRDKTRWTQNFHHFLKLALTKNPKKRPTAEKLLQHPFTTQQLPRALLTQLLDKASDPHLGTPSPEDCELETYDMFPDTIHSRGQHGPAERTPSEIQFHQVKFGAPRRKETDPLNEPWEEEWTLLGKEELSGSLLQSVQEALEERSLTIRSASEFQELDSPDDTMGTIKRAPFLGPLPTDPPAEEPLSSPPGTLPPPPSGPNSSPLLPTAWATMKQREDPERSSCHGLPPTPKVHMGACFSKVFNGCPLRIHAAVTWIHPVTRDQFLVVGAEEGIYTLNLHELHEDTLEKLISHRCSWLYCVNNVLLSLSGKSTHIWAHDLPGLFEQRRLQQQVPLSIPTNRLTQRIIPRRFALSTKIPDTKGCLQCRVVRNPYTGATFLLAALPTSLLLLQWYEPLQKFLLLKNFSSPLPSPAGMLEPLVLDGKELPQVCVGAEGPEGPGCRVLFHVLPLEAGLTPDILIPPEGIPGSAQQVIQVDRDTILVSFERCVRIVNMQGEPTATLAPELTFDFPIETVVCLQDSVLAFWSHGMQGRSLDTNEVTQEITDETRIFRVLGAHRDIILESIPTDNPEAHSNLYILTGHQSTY

Data set [5] deals with T3, panel of 255 wild-type kinases (Homo sapiens, UniProt P30530).
T3 sequence (P30530 26-894): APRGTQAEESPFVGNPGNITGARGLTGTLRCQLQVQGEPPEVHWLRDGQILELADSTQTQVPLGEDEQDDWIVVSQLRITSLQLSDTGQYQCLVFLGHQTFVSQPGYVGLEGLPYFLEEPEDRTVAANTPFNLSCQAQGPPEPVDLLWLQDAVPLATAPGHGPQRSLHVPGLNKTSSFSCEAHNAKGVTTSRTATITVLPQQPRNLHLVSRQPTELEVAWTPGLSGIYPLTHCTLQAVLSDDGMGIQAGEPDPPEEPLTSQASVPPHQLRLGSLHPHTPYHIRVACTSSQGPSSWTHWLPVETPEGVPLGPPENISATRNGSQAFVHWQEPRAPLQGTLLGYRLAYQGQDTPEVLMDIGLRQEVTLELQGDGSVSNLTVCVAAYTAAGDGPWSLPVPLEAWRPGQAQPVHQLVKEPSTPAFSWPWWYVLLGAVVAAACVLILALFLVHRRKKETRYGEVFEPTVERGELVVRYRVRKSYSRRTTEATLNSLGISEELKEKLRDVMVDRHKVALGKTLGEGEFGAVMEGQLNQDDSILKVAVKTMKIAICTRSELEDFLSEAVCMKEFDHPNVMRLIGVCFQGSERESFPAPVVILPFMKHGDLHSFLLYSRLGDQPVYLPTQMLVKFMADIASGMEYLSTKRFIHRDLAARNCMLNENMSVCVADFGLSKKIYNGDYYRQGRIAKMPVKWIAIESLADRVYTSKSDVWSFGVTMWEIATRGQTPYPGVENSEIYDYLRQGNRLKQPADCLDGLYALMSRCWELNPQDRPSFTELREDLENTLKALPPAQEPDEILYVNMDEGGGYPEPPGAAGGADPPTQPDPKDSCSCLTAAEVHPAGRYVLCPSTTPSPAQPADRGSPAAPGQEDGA

Setting [6] is: kinase PKCβ1, 1 µmol/L single concentration, ref DOI: 10.1158/1535-7163.MCT-18-0877.
Where [7] appears, read: kinase KIT, 1 µmol/L single concentration, ref DOI: 10.1158/1535-7163.MCT-18-0877.
Where [8] appears, read: kinase PKD3, 1 µmol/L single concentration, ref DOI: 10.1158/1535-7163.MCT-18-0877.
[9] abbreviates: kinase MAP4K2, 1 µmol/L single concentration, ref DOI: 10.1158/1535-7163.MCT-18-0877.
The mark [10] stands for this setting: AXL kinase assay, 1 µmol/L single concentration, ref DOI: 10.1158/1535-7163.MCT-18-0877.
[11] abbreviates: kinase PKCβ1, 1 µmol/L single concentration, ref DOI: 10.1371/journal.pone.0092146.
The mark [12] stands for this setting: kinase KIT, 1 µmol/L single concentration, ref DOI: 10.1371/journal.pone.0092146.
[13] abbreviates: kinase PKD3, 1 µmol/L single concentration, ref DOI: 10.1371/journal.pone.0092146.
[14] abbreviates: kinase MAP4K2, 1 µmol/L single concentration, ref DOI: 10.1371/journal.pone.0092146.
Where [15] appears, read: AXL kinase assay, 1 µmol/L single concentration, ref DOI: 10.1371/journal.pone.0092146.

For `CC#CC(=O)N1CCC[C@H]1c1nc(-c2ccc(C(=O)Nc3ccccn3)cc2)c2c(N)nccn12` [acalabrutinib], the “%-inhibition at 1 µmol/L, PKCβ1” value in data set [1] (setting [6]) was -11%. The “%-inhibition at 1 µmol/L, KIT” value in data set [2] (setting [7]) is 3%. Besides, the “%-inhibition at 1 µmol/L, PKD3” value in data set [3] (setting [8]) is -2%. Also, the “%-inhibition at 1 µmol/L, MAP4K2” value in data set [4] (setting [9]) is reported as -11%. Moreover, the “%-inhibition AXL” value in data set [5] (setting [10]) is recorded as -0.457%.

On to `CCc1cc2c(cc1N1CCC(N3CCOCC3)CC1)C(C)(C)c1[nH]c3cc(C#N)ccc3c1C2=O` [alectinib], for which the “%-inhibition at 1 µmol/L, PKCβ1” value in data set [1] (setting [6]) is on record as -1.89%. Also, the “%-inhibition at 1 µmol/L, KIT” value in data set [2] (setting [7]) is listed as 0.373%. Moreover, the “%-inhibition at 1 µmol/L, PKD3” value in data set [3] (setting [8]) is listed as 2.17%. Further, the “%-inhibition at 1 µmol/L, MAP4K2” value in data set [4] (setting [9]) is 7.56%. For the same compound, the “%-inhibition AXL” value in data set [5] (setting [10]) was 59%.

For `COc1cc(N2CCC(N3CCN(C)CC3)CC2)ccc1Nc1ncc(Cl)c(Nc2ccccc2P(C)(C)=O)n1` [brigatinib], in data set [1], the “%-inhibition at 1 µmol/L, PKCβ1” value is given as 7.42%. Moreover, the “%-inhibition at 1 µmol/L, KIT” value in data set [2] is given as 51%. The “%-inhibition at 1 µmol/L, PKD3” value in data set [3] is given as 85%. Further, the “%-inhibition at 1 µmol/L, MAP4K2” value in data set [4] is 77%. In data set [5], the “%-inhibition AXL” value is given as 97%.

With `Cc1cc(Nc2ncc(Cl)c(Nc3ccccc3S(=O)(=O)C(C)C)n2)c(OC(C)C)cc1C1CCNCC1` [ceritinib], the “%-inhibition at 1 µmol/L, PKCβ1” value in data set [1] (setting [6]) is reported as 6.66%. In addition, the “%-inhibition at 1 µmol/L, PKD3” value in data set [3] (setting [8]) is on record as 46%. Moreover, the “%-inhibition at 1 µmol/L, MAP4K2” value in data set [4] (setting [9]) is 7.37%. In addition, in data set [5] (setting [10]), the “%-inhibition AXL” value was 56%.

For `O=C(c1ccc(F)c(F)c1Nc1ccc(I)cc1F)N1CC(O)([C@@H]2CCCCN2)C1` [cobimetinib], the “%-inhibition at 1 µmol/L, PKCβ1” value in data set [1] (setting [6]) was -4.35%. Moreover, the “%-inhibition at 1 µmol/L, KIT” value in data set [2] (setting [7]) was -17%. Besides, the “%-inhibition at 1 µmol/L, PKD3” value in data set [3] (setting [8]) is 4.41%. Further, in data set [4] (setting [9]), the “%-inhibition at 1 µmol/L, MAP4K2” value is on record as -5.57%. In addition, the “%-inhibition AXL” value in data set [5] (setting [10]) is on record as 3%.

On to `C[C@@H](Oc1cc(-c2cnn(C3CCNCC3)c2)cnc1N)c1c(Cl)ccc(F)c1Cl` [crizotinib], for which, in data set [1] (setting [11]), the “%-inhibition at 1 µmol/L, PKCβ1” value is reported as -3%. Further, in data set [2] (setting [12]), the “%-inhibition at 1 µmol/L, KIT” value is 16%.

Turning to `CC(C)(C)c1nc(-c2cccc(NS(=O)(=O)c3c(F)cccc3F)c2F)c(-c2ccnc(N)n2)s1` [dabrafenib], the “%-inhibition at 1 µmol/L, KIT” value in data set [2] (setting [12]) was 59%. The “%-inhibition at 1 µmol/L, PKD3” value in data set [3] (setting [13]) was 93%. Also, the “%-inhibition at 1 µmol/L, MAP4K2” value in data set [4] (setting [14]) is 8%. Moreover, the “%-inhibition AXL” value in data set [5] (setting [15]) was 30%.

Take `C=CC(=O)N1CCC[C@@H](n2nc(-c3ccc(Oc4ccccc4)cc3)c3c(N)ncnc32)C1` [ibrutinib]: the “%-inhibition at 1 µmol/L, PKCβ1” value in data set [1] (setting [6]) is listed as -3%. Also, the “%-inhibition at 1 µmol/L, KIT” value in data set [2] (setting [7]) is -4.53%. In data set [3] (setting [8]), the “%-inhibition at 1 µmol/L, PKD3” value is 5.48%. For the same compound, the “%-inhibition at 1 µmol/L, MAP4K2” value in data set [4] (setting [9]) is listed as -4.43%. The “%-inhibition AXL” value in data set [5] (setting [10]) is 9%.

For `CO[C@@H]1[C@H](N(C)C(=O)c2ccccc2)C[C@H]2O[C@]1(C)n1c3ccccc3c3c4c(c5c6ccccc6n2c5c31)C(=O)NC4` [midostaurin], in data set [1] (setting [6]), the “%-inhibition at 1 µmol/L, PKCβ1” value is given as 89%. The “%-inhibition at 1 µmol/L, MAP4K2” value in data set [4] (setting [9]) is given as 94%. The “%-inhibition AXL” value in data set [5] (setting [10]) was 87%.

For the compound `C=CC(=O)Nc1cc(Nc2nccc(-c3cn(C)c4ccccc34)n2)c(OC)cc1N(C)CCN(C)C` [osimertinib], the “%-inhibition at 1 µmol/L, PKCβ1” value in data set [1] (setting [6]) is on record as 9%. In data set [2] (setting [7]), the “%-inhibition at 1 µmol/L, KIT” value is -13%. Moreover, the “%-inhibition at 1 µmol/L, PKD3” value in data set [3] (setting [8]) is 28%. Besides, in data set [4] (setting [9]), the “%-inhibition at 1 µmol/L, MAP4K2” value was -0.698%. The “%-inhibition AXL” value in data set [5] (setting [10]) is recorded as 43%.

In the case of `CC(=O)Nc1cccc(-n2c(=O)n(C3CC3)c(=O)c3c(Nc4ccc(I)cc4F)n(C)c(=O)c(C)c32)c1` [trametinib], in data set [1] (setting [11]), the “%-inhibition at 1 µmol/L, PKCβ1” value is on record as -3.47%. The “%-inhibition at 1 µmol/L, KIT” value in data set [2] (setting [12]) is listed as -0.648%. Further, the “%-inhibition at 1 µmol/L, PKD3” value in data set [3] (setting [13]) is 2.48%. For the same compound, the “%-inhibition at 1 µmol/L, MAP4K2” value in data set [4] (setting [14]) is recorded as 4%. For the same compound, the “%-inhibition AXL” value in data set [5] (setting [15]) is reported as -1.12%.

In the case of `CCCS(=O)(=O)Nc1ccc(F)c(C(=O)c2c[nH]c3ncc(-c4ccc(Cl)cc4)cc23)c1F` [vemurafenib], the “%-inhibition at 1 µmol/L, PKCβ1” value in data set [1] (setting [11]) was -3.81%. In addition, in data set [2] (setting [12]), the “%-inhibition at 1 µmol/L, KIT” value is listed as 58%. The “%-inhibition at 1 µmol/L, PKD3” value in data set [3] (setting [13]) is on record as -4.7%. Further, the “%-inhibition at 1 µmol/L, MAP4K2” value in data set [4] (setting [14]) is given as 43%. Moreover, the “%-inhibition AXL” value in data set [5] (setting [15]) was 20%.
